Where a name gives a salt, the structure may show the parent alone.
Legend:
NFAT = test: EMSA of nuclear extracts, NFAT DNA binding; format: cell-based; conditions: Jurkat T cells, PMA plus ionomycin, 100 μM biliverdin
Description: Nuclear protein extraction and electrophoretic mobility shift assay (EMSA). Jurkat T cells were cultured in 10% FCS supplemented RPMI 1640 with 50 nM phorbol myristyl acetate (PMA) and 2 μM ionomycin (both reagents from ICN Biomedicals) in the presence or absence of 100 μM biliverdin. Following 0, 2, and 4 hrs of stimulation, cells (30×10^6 cells for each group at each time points) were collected, washed twice with PBS, and pelleted. Nuclear and cytoplasmic extracts were prepared according to a modified Shapiro's method (Shapiro et al., DNA 7(1):47-55, 1988). Protein concentrations were determined by the Bradford assay. The following oligonucleotides (Invitrogen, Calsbad, Calif.) were used for EMSA:
NFAT, (coding) 5′-[…]-3′ (SEQ ID NO:5),
(non-coding) 5′-[…]-3′ (SEQ ID NO:6); and
Oligonucleotides were radioactively labeled with [^32P] ATP. The EMSA reactions were assembled as previously described (Usheva et al., Proc. Natl. Acad. Sci. USA 93(24):13571-6, 1996). Digital images from the EMSA radiographs were obtained using an image scanner.

intestinal graft = test: Graft permeability, everted gut sac method with FD4; format: in vivo, LEW rats; conditions: BV treated grafts
Description: Graft permeability. The preparation of everted gut sacs was performed in ice-cold modified Krebs-Henseleit bicarbonate buffer [KHBB (pH 7.4)] consisting of 10 mM HEPES, 137.0 mM NaCl, 5.36 mM KCl, 4.17 mM NaHCO3, 0.34 mM Na2HPO4, 0.44 mM KH2PO4, 0.41 mM MgSO47H2O, 0.49 mM MgCl26H20, 1.26 mM CaCl2, and 19.45 mM glucose. One end of the gut segment was ligated with 4-0 silk. The resulting gut sac was everted using a thin plastic rod. A groove was cut into the tip of a 5 ml plastic syringe and 1.5 mL of KHBB was drawn into the syringe. The open end of the everted gut sac was secured to the groove using 4-0 silk, and the intestine was gently distended by injecting the KHBB from the syringe. […] Following a 30 min incubation, the length of the sac was measured, and 1.0 mL of the fluid within the gut sac was collected. […] Subsequently, 300 ul of the supernatant was diluted with 3.0 mL of phosphate buffered saline, and the fluorescence of the solution was measured using a Perkin-Elmer LS-50 fluorescence spectrophotometer (Palo Alto, Calif.) at an excitation wave length of 492 nm (slit width=10.0 nm) and an emission wavelength of 515 nm (slit width=[…]).
Graft permeability. […] Graft permeability was determined by the everted gut sac method using 4 Kd Fluorescein isothiocyanate dextran.

iNOS = test: Real time RT-PCR of graft muscularis after SITx, iNOS; format: in vivo, LEW rats
Description: Small Intestinal Transplantation. Orthotopic small intestinal transplantation (SITx) was performed in syngeneic Lewis rats. SITx with caval drainage was performed using a previously described procedure (Murase et al., in Handbook of Animal Models in Transplantation Research, Cramer et al., Eds. CRC Press, Boca Raton, Fla., pp. 203-213 (1994)). […] The graft was perfused via the aortic segment with 5 ml chilled Ringer's lactate solution, and the intestinal lumen was irrigated with 20 ml of cold saline solution containing 0.5% neomycin-sulfate (Sigma, St. Louis, Mo.). […]
SYBR green real time RT-PCR. The effects of administration of biliverdin on transplant-induced pro-inflammatory and anti-inflammatory gene expression were assessed in muscularis extracts by RT-PCR Biliverdin ([…], i.p.) was administered to both the donor and recipient three hours preoperatively. […] Equal aliquots (5 μg) of total RNA from each sample were quantified by spectrophotometry (wavelength […]) and aliquoted at a concentration of 40 ng/μl. Peak mRNA expression was quantified in duplicate by SYBR Green two-step, real-time RT-PCR. […] Real-time PCR data were plotted as the ΔRn fluorescence signal versus the cycle number. […] Quantification of mRNA expression was normalized to GAPDH and calculated relative to control using the comparative CT method (Schmittgen et al., J. Biochem. Biophys. Methods 46(1-2):69-8, 2000). […]

C=CC1=C(C)/C(=C/C2=NC(=C\c3[nH]c(/C=C4\NC(=O)C(C)=C4C=C)c(C)c3CCC(=O)O)/C(CCC(=O)O)=C2C)NC1=O [biliverdin, biliverdin dihydrochloride]
DNA binding of NFAT (NFAT): inhibited DNA binding
inhibition of the increase of intestinal permeability (intestinal graft): ~60%
reduction of mean relative iNOS mRNA expression (iNOS; BV treated rats, graft muscularis): approximately 50%
mRNA expression of iNOS or COX-2 (iNOS; BV treatment of unoperated control animals): did not alter
